Reference: ChEMBL document CHEMBL1201862, “PubChem BioAssay data set” (2004)
Calls of active or inactive are those of the source.

Columns and labels:
[1] = target: T1, Methionyl-tRNA synthetase, putative (Trypanosoma brucei brucei, UniProt Q38C91); type: functional, Trypanosoma brucei brucei strain 927/4 GUTat10.1
T1 sequence (Q38C91 whole entry): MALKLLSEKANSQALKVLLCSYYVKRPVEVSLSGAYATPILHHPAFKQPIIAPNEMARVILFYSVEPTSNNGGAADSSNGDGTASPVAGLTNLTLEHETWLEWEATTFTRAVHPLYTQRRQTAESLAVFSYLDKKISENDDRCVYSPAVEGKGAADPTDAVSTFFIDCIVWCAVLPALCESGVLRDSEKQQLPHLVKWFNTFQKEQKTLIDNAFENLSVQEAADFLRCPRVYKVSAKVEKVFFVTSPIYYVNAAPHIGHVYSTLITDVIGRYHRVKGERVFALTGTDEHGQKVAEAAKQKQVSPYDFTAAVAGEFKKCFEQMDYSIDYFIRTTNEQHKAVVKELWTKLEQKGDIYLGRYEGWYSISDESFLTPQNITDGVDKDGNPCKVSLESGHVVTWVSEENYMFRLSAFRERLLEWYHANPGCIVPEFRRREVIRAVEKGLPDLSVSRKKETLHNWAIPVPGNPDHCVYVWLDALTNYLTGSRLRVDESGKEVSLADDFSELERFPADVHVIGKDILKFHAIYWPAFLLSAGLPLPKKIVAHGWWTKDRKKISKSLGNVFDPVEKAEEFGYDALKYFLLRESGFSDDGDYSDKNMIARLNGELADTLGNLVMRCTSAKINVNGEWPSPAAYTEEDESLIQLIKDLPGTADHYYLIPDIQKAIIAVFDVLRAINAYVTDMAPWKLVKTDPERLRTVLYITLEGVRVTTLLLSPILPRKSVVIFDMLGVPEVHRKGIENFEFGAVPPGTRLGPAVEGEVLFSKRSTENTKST

[2] = target: T1, Methionyl-tRNA synthetase, putative; type: functional, Trypanosoma brucei brucei strain 927/4 GUTat10.1; remark: listed apart in the source
[3] = Counterscreen for inhibitors of Trypanosoma brucei methionyl tRNA synthetase (MetRS): Luminescence-based cell-based high throughput dose response assay to identify compounds that are cytotoxic to Jurkat human T lymphocyte cells.; type: functional
[4] = NIH3T3 cell viability loss – ATP luminescence, mouse fibroblasts, counter-screen, dose response (AID 2010); type: functional, cell-based;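 note: cells exposed to compound for about 90 hours before reading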
HEK293 [5] = test: NOD2 signaling inhibitors in MDP-stimulated cells, cell-based, uHTS, luminescence (AID 2001); type: functional; details: Homo sapiens
HEK293 [6] = test: inhibition of NOD1-driven NF-kB reporter – cell-based, luminescence, uHTS, primary screen (AID 1578); type: functional; details: Homo sapiens
HEK293 [7] = test: cells; type: functional, cell-based; details: Homo sapiens
[8] = Trypanosoma cruzi growth suppression in host cells – NIH3T3 host cells, beta-gal luminescence, confirmation (AID 2044); type: functional, cell-based;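 note: intracellular parasites grown in NIH/3T3 mouse fibroblasts as host cells; luminescent beta-galactosidase reporter signal from transgenic T. cruzi replicating inside host cells; inhibitors lower the luminescence signal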
HEK293 [9] = test: cells; type: functional, cell-based; details: Homo sapiens; remark: listed apart in the source
[10] = Counterscreen for activators of the function of SWI/SNF related, matrix associated, actin dependent regulator of chromatin, subfamily a, member 2 (SMARCA2, BRM): Luminescence-based cell-based high throughput dose response assay to identify non-selective compounds using the VP16 reporter assay.; type: functional
[11] = target: SWI/SNF-related matrix-associated actin-dependent regulator of chromatin subfamily A member 2 (Homo sapiens, UniProt P51531); test: Luminescence-based cell-based high throughput dose response assay to identify activators of the function of SWI/SNF related, matrix associated, actin dependent regulator of chromatin, subfamily a, member 2 (SMARCA2, BRM).; type: functional
[12] = target: T2, Microphthalmia-associated transcription factor (Homo sapiens, UniProt O75030); test: reducers of TRPM1 reporter luminescence, concentration series – cell-based, SK-MEL-5, cherry-picked, set 3, MITF inhibitor project, dose response (AID 493073); type: functional;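 note: SK-MEL-5 melanoma cells with luciferase driven by the MITF target TRPM1 promoter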
T2 sequence (O75030 whole entry): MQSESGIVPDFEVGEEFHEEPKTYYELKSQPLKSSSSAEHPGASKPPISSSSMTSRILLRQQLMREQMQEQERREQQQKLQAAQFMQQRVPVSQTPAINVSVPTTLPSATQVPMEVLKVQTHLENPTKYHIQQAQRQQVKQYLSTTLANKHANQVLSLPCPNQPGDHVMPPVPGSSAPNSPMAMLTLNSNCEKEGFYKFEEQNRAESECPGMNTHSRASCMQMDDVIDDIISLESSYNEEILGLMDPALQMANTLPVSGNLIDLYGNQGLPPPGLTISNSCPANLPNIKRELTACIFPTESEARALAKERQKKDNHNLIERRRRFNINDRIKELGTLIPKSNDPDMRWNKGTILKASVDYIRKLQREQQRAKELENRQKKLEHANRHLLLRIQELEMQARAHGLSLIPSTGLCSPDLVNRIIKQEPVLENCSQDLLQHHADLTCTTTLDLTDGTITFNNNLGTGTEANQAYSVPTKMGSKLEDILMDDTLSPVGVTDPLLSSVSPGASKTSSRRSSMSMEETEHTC

Prothrombin = Prothrombin (Bos taurus, UniProt P00735); test: thrombin protease inhibitors – biochemical, fluorescence polarization, uHTS hits, dose response (AID 602369); type: functional
[13] = target: ADP-ribosylation factor GTPase-activating protein 1 (Rattus norvegicus, UniProt Q62848); test: Fluorescence polarization-based biochemical high throughput dose response screening assay to identify inhibitors of ADP-ribosylation factor GTPase activating protein 1 (ARFGAP1).; type: functional
[14] = viability of HCT116 lacking mutant beta-catenin – cell-based, human colon tumor, dose response (AID 1045); type: functional;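 note: HCT116 colon tumor cells with beta catenin knocked out; cells exposed to compound for 60 hours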
[15] = target: 26S proteasome non-ATPase regulatory subunit 14 (Homo sapiens, UniProt O00487); test: inhibition of proteasome subunit RPN11 – biochemical, fluorescence polarization, uHTS hits, confirmation (AID 602368); type: functional
[16] = viability of PTEN-deleted HCT116 cells – cell-based, HCT116 PTEN knockout, dose response (AID 1047); type: functional;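 note: HCT116 colon tumor cells with PTEN knocked out; cells exposed to compound for 60 hours before readout; potency for loss of cell viability measured by luminescence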
[17] = target: 72 kDa type IV collagenase (Homo sapiens, UniProt P08253); test: Dose Response validation of uHTS RPN11 inhibitor hits using a MMP-2 Fluorescence assay.; type: functional
[18] = target: Arf-GAP with SH3 domain, ANK repeat and PH domain-containing protein 1 (Homo sapiens, UniProt Q9ULH1); type: functional;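 note: biochemical fluorescence polarization dose–response screen measuring inhibition of ASAP1; ASAP1 GAP domain stimulating GTP hydrolysis by truncated human ARF1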
cells [19] = type: functional, cell-based
cells [20] = type: functional, cell-based; remark: listed apart in the source
[21] = inhibition of ARNT PAS-B/TACC3 complex formation – biochemical, AlphaScreen, cherry-picked samples, confirmation (AID 651703); type: functional, Homo sapiens;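 note: His-tagged ARNT PAS-B domain paired with GST-TACC3 E629A dimer coactivator fragment; potency of inhibitors that break up the complex and lower AlphaScreen signal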
Fatty acid synthase [22] = target: T3, Fatty acid synthase (Homo sapiens, UniProt P49327); test: inhibition of human FAS-TE enzyme activity – biochemical, endpoint fluorescence intensity, uHTS hits, dose response (AID 624327); type: functional;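 note: fluorescence from hydrolysis of an O-methyl fluorescein acyl ester substrate by the enzyme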
Caspase-6 = target: T4, Caspase-6 (Homo sapiens, UniProt P55212); test: inhibition of CASP6 peptide cleavage – biochemical, VEID-R110 fluorescence, cherry-pick, dose response (AID 720632)
T4 sequence (P55212 whole entry): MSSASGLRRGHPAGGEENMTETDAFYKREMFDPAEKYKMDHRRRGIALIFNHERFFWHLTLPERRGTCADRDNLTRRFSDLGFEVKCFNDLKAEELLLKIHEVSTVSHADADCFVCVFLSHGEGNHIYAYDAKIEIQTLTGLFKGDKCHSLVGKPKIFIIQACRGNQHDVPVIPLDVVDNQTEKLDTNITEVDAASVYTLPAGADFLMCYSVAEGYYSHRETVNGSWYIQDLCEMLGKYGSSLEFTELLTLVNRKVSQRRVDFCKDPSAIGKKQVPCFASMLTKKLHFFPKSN

[23] = target: T5, Small ubiquitin-related modifier 1 (Homo sapiens, UniProt P63165); test: SUMO1 protein interaction blockers, potency – biochemical, fluorescence polarization, uHTS hits, dose response (AID 624382); type: functional; details: read-out: IC50_Mean
Fatty acid synthase [24] = target: T3, Fatty acid synthase; test: inhibition of human FAS-TE enzyme activity – biochemical, kinetic fluorescence intensity, dose response (AID 624326); type: functional;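 note: rate of fluorescence rise from hydrolysis of a fluorogenic O-methyl fluorescein ester substrate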
[25] = target: T5, Small ubiquitin-related modifier 1; test: SUMO1 protein-protein binding blockers, potency – biochemical, FRET, dose response (AID 624383); type: functional; details: read-out: IC50_Mean
[26] = target: T6, Histone-lysine N-methyltransferase NSD2 (Homo sapiens, UniProt O96028); type: biochemical
T6 sequence (O96028 whole entry): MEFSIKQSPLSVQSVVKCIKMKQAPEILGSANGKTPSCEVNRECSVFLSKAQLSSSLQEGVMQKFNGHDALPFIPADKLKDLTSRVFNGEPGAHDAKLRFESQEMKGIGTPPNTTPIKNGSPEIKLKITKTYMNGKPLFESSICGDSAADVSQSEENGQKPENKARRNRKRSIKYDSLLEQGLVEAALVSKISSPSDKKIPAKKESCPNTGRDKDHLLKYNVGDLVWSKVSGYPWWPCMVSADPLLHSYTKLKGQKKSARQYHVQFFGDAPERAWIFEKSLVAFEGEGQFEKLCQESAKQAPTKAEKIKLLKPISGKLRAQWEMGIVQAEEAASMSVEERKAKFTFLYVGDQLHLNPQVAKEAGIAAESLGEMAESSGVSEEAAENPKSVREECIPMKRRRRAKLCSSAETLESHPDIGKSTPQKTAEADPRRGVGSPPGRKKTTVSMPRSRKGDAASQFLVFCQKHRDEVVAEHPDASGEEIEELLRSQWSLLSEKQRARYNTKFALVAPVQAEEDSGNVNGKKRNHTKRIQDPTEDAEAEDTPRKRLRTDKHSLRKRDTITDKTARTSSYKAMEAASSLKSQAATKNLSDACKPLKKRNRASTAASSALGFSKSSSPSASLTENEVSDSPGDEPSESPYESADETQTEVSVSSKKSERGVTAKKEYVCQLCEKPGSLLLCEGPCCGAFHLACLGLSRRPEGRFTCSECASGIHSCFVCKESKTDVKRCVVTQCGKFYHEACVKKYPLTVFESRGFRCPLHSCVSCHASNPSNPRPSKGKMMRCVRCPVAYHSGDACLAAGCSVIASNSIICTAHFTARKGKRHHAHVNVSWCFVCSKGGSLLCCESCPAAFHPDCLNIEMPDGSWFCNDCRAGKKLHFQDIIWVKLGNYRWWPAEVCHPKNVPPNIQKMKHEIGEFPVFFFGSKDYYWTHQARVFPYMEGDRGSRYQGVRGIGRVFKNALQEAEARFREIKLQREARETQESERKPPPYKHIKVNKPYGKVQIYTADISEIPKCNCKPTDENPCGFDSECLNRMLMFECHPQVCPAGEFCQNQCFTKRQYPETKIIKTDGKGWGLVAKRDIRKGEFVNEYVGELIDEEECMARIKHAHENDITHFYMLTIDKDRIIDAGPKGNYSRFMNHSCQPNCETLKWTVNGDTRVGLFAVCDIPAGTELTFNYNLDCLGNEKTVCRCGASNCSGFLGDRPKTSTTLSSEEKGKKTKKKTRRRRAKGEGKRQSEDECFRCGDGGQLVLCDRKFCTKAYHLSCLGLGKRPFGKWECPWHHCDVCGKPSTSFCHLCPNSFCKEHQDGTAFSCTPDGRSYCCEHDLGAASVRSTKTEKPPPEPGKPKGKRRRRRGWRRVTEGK

[27] = activation of miR-122 Renilla sensor silencing – cell-based, Huh7 psiCHECK-miR122, Renilla luciferase, cherry-picked, dose response (AID 651956); type: functional;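 note: huh7 hepatoma cells stably carrying a psiCHECK-2 miR-122 sensor plasmid; renilla luciferase signal reporting endogenous miR-122 activity after 48 h compound exposure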
Beta-galactosidase = Beta-galactosidase (Escherichia coli, UniProt Q8VNN2); test: Dose response counterscreen for EBI2 assay utilizing the enzyme, b-galactosidase.; type: functional

T5 sequence (P63165 whole entry): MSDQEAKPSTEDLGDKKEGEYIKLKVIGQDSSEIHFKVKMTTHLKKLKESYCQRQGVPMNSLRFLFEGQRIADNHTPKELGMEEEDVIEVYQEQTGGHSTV
T3 sequence (P49327 whole entry): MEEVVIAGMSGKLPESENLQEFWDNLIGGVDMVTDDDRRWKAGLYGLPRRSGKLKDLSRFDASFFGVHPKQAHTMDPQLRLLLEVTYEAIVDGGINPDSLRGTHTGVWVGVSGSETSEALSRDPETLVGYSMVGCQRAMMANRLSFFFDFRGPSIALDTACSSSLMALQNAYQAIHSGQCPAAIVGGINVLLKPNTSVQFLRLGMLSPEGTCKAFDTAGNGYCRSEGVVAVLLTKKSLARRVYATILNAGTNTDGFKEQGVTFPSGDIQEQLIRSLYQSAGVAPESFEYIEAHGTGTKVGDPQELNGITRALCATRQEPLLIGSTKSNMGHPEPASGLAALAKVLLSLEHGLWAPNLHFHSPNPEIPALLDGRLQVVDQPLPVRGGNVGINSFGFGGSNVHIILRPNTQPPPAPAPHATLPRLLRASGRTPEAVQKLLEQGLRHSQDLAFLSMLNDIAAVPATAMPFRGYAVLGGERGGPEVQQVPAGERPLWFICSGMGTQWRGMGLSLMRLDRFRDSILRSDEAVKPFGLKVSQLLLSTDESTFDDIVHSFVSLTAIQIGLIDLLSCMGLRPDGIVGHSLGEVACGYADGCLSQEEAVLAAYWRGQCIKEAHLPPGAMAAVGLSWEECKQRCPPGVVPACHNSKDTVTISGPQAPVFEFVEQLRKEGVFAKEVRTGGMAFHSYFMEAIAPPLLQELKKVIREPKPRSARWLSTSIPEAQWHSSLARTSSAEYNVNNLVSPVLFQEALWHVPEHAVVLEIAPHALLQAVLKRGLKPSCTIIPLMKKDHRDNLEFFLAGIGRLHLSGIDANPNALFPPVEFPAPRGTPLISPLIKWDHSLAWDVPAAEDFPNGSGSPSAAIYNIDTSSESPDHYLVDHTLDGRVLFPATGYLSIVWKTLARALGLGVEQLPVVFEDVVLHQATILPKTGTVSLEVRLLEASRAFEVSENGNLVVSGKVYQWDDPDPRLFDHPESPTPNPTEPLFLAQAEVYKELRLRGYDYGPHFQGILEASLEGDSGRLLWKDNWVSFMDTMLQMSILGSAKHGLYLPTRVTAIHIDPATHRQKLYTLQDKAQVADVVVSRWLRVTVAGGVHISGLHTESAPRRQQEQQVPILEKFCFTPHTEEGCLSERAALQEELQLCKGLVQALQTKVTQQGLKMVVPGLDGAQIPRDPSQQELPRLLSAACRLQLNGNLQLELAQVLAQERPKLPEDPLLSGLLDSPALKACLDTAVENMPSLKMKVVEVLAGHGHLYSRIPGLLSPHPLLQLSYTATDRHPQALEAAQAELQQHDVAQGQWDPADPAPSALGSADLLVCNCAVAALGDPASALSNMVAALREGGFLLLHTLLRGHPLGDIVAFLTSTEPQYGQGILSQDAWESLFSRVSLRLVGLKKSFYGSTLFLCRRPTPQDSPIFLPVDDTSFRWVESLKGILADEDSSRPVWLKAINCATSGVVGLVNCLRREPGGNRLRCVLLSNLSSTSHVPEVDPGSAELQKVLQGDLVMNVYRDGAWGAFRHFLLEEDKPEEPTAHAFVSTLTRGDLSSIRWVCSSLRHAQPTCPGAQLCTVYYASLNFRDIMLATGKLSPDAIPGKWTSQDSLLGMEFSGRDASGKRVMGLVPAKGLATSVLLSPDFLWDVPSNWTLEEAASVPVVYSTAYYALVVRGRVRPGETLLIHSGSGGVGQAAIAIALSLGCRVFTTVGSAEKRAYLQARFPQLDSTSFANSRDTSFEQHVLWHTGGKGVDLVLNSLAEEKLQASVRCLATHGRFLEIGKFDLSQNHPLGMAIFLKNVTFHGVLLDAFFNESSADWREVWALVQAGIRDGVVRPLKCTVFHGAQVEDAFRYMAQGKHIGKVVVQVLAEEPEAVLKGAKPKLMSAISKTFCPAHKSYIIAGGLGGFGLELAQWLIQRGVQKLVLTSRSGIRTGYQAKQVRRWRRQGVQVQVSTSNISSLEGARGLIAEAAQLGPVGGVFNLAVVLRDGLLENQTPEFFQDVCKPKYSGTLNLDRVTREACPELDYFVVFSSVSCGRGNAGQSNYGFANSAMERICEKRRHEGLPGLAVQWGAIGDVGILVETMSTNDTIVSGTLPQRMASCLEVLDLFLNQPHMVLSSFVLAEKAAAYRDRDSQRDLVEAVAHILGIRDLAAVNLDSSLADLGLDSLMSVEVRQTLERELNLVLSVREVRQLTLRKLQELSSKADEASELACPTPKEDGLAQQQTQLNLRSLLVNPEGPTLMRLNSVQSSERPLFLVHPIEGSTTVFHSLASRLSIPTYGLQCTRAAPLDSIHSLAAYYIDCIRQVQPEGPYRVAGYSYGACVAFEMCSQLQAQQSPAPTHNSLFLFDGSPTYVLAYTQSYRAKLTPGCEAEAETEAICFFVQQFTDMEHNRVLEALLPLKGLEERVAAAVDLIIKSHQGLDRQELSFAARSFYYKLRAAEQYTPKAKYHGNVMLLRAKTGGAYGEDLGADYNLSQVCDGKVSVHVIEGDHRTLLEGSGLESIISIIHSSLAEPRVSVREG
Chain of SWI/SNF-related matrix-associated actin-dependent regulator of chromatin subfamily A member 2 (P51531 whole entry): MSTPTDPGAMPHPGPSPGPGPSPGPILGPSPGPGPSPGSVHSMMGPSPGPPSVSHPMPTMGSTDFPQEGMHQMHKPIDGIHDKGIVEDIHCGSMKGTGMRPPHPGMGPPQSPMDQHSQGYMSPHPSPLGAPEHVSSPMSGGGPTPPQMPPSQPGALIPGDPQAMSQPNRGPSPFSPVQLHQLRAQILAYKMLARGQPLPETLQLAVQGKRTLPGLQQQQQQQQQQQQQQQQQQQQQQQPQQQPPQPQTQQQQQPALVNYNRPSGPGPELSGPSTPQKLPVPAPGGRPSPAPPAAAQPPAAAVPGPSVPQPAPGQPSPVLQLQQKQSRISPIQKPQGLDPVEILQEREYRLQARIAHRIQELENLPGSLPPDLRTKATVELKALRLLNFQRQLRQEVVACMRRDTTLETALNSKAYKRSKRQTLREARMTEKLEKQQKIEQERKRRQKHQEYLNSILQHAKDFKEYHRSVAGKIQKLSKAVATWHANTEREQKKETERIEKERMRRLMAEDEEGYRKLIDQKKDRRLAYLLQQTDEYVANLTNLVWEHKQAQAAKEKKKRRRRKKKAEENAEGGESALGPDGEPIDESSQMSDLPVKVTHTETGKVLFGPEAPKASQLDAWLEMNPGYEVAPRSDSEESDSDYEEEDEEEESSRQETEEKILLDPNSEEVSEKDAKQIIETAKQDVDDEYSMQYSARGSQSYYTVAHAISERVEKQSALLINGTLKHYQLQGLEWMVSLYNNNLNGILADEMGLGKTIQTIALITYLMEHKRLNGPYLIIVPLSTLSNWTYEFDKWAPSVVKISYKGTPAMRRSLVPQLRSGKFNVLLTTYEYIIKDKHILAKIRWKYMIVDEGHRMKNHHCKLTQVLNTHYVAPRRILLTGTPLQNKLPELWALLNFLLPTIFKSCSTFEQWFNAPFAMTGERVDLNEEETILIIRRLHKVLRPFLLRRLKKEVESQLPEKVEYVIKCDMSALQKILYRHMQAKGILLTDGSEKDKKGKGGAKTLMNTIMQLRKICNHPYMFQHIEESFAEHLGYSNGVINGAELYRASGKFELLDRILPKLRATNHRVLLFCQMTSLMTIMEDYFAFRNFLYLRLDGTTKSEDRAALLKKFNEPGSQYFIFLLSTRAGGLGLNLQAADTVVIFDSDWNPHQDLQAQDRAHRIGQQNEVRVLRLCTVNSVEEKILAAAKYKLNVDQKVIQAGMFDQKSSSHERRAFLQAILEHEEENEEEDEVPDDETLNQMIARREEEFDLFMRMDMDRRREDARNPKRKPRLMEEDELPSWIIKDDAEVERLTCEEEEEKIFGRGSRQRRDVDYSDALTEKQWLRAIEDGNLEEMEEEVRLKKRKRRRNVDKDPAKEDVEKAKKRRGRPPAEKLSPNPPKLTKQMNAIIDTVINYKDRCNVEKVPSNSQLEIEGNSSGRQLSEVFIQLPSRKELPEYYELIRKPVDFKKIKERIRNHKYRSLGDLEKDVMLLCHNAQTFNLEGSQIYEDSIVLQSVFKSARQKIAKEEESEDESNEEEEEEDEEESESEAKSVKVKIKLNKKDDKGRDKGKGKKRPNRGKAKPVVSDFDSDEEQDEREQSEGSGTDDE
Chain of ADP-ribosylation factor GTPase-activating protein 1 (Q62848 whole entry): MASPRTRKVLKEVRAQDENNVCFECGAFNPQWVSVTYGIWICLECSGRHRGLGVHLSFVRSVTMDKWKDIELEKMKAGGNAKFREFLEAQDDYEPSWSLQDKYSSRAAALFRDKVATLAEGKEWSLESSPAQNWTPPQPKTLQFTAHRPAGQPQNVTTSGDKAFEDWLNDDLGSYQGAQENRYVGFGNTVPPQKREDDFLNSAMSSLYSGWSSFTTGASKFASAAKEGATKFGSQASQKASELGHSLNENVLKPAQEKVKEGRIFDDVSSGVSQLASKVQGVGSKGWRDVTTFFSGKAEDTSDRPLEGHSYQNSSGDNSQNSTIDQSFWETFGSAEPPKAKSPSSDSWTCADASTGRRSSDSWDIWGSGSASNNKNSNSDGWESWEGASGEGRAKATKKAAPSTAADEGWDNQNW
Chain of 26S proteasome non-ATPase regulatory subunit 14 (O00487 whole entry): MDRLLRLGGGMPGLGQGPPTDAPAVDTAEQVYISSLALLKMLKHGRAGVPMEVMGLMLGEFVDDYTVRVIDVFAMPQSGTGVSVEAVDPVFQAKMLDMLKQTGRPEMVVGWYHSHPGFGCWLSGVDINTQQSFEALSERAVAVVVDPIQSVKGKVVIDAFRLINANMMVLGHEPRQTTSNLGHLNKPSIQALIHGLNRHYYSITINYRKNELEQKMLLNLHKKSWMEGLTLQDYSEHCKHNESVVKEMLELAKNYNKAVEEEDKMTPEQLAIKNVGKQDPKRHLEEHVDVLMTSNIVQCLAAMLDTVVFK

## N#Cc1ccc(CSc2nnc(Nc3ccccc3)s2)cc1
[1]
  IC50: 119 µM (inactive)
[2]
  IC50: 7.66 µM (active)
[3]
  IC50: 83.3 µM (inactive)

## COc1ccccc1NS(=O)(=O)c1cccc(NC(=O)Nc2ccc(Cl)cc2)c1
[4]
  EC50: > 60 µM (not active)
HEK293 [5]
  IC50: 5.81 µM (inactive)
HEK293 [6]
  EC50: > 20 µM (inactive)
[1]
  IC50: 39.5 µM (inactive)
HEK293 [7]
  IC50: 6.59 µM (active)
[2]
  IC50: 5.53 µM (active)
[3]
  IC50: 65.3 µM (inactive)
[8]
  EC50: 1.8 µM (active)
HEK293 [9]
  IC50: 7.01 µM (active)

## CCN1CCN(c2ccc(S(=O)(=O)N3CCCCC3)cc2NC(=O)/C=C/c2ccc([N+](=O)[O-])cc2)CC1
[10]
  EC50: > 91.2 µM (inactive)
[11]
  EC50: > 91.2 µM (inactive)
[12]
  AC50: 7.51 µM (active)

## N#C/C(=N/Nc1ccccc1F)C(=N)N1CCOCC1
[10]
  EC50: > 91.2 µM (inactive)
[11]
  EC50: > 91.2 µM (inactive)

## Nc1nc(SCc2ccc(Cl)cc2Cl)nc2nc3c(cc12)CCCC3
Prothrombin
  IC50: 39.2 µM (active)
[13]
  IC50: 23.8 µM (inactive)
[14]
  EC50: 13.3 µM (active)
[15]
  IC50: 41.4 µM (active)
[16]
  EC50: 14.4 µM (active)
[17]
  IC50: > 100 µM (inactive)
[18]
  IC50: 17.7 µM (inactive)

## Cc1ccc2nc(SCC(=O)N3CCCCCC3)nc(=O)n2c1
[13]
  IC50: 23.1 µM (inactive)
Cells [19]
  EC50: > 350 µM (not active)
Cells [20]
  EC50: > 350 µM (not active)
[18]
  IC50: 30.7 µM (inactive)

## N#Cc1cc2ccc(N3CCOCC3)cc2cc1C#N
[21]
  AC50: 116 µM (active)
Fatty acid synthase [22]
  IC50: 5.9 µM (active)
Caspase-6
  AC50: 29.9 µM (active)
[23]
  IC50: > 66.6 µM (inactive)
Fatty acid synthase [24]
  IC50: 4.31 µM (active)
[25]
  IC50: 100 µM (inactive)
[26]
  AC50: 3.05 µM (active)

## COc1ccc(C#Cc2ccc3c(c2)O[C@H](CN(C)C(=O)CN2CCOCC2)[C@H](C)CN([C@@H](C)CO)S3(=O)=O)cc1
[27]
  AC50: 29.9 µM (active)

## CCOC(=O)C1CCN(C(=O)c2cc3c(ccc4ccccc43)o2)CC1
Beta-galactosidase
  IC50: > 80 µM (inactive)
